This is an account of results in patent US8263606B2 (Xenon Pharmaceuticals Inc., priority 2008, dated 2012).

In one series the test system is sodium channel. The series can be described thus: Guanidine influx assay (14C-guanidine radiotracer flux, in vitro). Format: cell-based, human or rat. The settings on record: guanidine influx assay using a known cell line that expresses a sodium channel. In outline:
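Human or rat sodium channels stably expressed in endogenous or recombinant cells, plated ~100,000 cells/well for 20-24 h at 37 °C. Cells were treated with test agent in low-sodium choline HEPES saline plus aconitine and 14C-guanidine at ambient temperature, washed, and counted by scintillation; IC50 from 4-parameter logistic fit.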

For series [1], the system named is inactivated state of the channel of interest (sodium channel). The series is described as follows: Electrophysiological assay (whole cell voltage clamp, in vitro). It is filed as cell-based. The settings on record: affinity for the inactivated state of the channel of interest. As for the experimental part: Cells expressing the channel of interest are cultured in DMEM growth media (Gibco) with 0.5 mg/mL G418, +/−1% PSG, and 10% heat-inactivated fetal bovine serum at 37° C. and 5% CO2. For electrophysiological recordings, cells are plated on 10 mm dishes.
Whole cell recordings are examined by established methods of whole cell voltage clamp (Bean et al., op. cit.) using an Axopatch 200B amplifier and Clampex software (Axon Instruments, Union City, Calif.). All experiments are performed at ambient temperature. Electrodes are fire-polished to resistances of 2-4 Mohms Voltage errors and capacitance artifacts are minimized by series resistance compensation and capacitance compensation, respectively. Data are acquired at 40 kHz and filtered at 5 kHz. The external (bath) solution consists of: NaCl (140 mM), KCl (5 mM), CaCl2 (2 mM), MgCl2 (1 mM), HEPES (10 mM) at pH 7.4. The internal (pipette) solution consists of (in mM): NaCl (5), CaCl2 (0.1), MgCl2 (2), CsCl (10), CsF (120), HEPES (10), EGTA (10), at pH 7.2.
To estimate the steady-state affinity of compounds for the resting and inactivated state of the channel (Kr and Ki, respectively), 12.5 ms test pulses to depolarizing voltages from −60 to +90 mV from a holding potential of −120 m V is used to construct current-voltage relationships (I-V curves). A voltage near the peak of the IV-curve (−30 to 0 m V) is used as the test pulse throughout the remainder of the experiment. Steady-state inactivation (availability) curves are then constructed by measuring the current activated during a 8.75 ms test pulse following 1 second conditioning pulses to potentials ranging from −120 to −10 m V.
The steady-state voltage-dependence of binding of a compound to a sodium channel is determined by measuring the blockage of the ionic current at two holding potentials. Binding to rested-state channels is determined by using a holding potential of −120 mV, so that maximal availability is achieved. Binding to inactivated-state channels is evaluated at a holding potential such that only 10% of the channels are available to open. The membrane potential is held at this voltage for at least 10 seconds so that drug binding can equilibrate.
The apparent dissociation constant at each voltage is calculated with the equation:
[formula] where Kd is the dissociation constant (either Kr or Ki), and [Drug] is the concentration of the test compound.
The Example numbers provided in Table 3 correspond to the Examples herein: […]

The next series concerns the target CYP3A4 (Homo sapiens, UniProt P08684). The series is described as follows: Cytochrome P450 (CYP450) Inhibition Assay, CYP3A4 (Vivid fluorescence, BOMCC substrate). The note with it: human, P450 Baculosomes (recombinant CYP3A4), probe BOMCC (Vivid substrate).

Bounds are passed on as bounds.

Sequence of CYP3A4 (P08684 whole entry): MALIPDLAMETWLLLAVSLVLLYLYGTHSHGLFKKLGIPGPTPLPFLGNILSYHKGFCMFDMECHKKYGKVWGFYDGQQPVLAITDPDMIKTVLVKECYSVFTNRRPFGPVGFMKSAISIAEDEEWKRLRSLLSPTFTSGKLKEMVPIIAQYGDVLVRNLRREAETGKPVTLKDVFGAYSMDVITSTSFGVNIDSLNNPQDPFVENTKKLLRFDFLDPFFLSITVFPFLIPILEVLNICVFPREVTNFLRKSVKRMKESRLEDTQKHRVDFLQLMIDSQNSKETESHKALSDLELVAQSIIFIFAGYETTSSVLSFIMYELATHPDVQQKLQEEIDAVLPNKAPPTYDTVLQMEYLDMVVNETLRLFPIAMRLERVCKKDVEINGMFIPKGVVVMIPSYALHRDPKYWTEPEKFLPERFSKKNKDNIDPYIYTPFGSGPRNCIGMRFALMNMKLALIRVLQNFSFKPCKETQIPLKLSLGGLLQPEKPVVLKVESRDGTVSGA

For the compound `O=C1N(Cc2ncccc2C(F)(F)F)c2ccccc2[C@]12COc1cc3c(cc12)OCCO3` [Example 1.12, (8S)-1′-{[3-(trifluoromethyl)pyridin-2-yl]methyl}-2,3-dihydrospiro[furo[2,3-g][1,4]benzodioxine-8,3′-indol]-2′(1′H)-one], the IC50 in the series on sodium channel (activity level class) lay in the range of 1 to 100 nM. For the same compound, the Ki in series [1] was under 300 nM. At CYP3A4, the inhibition at 10 µM is under 50%.
As to `CN1C(=O)C2(COc3cc4c(cc32)OC(F)(F)O4)c2ccccc21` (centres unmarked) [Example 2.35], the IC50 with sodium channel (activity level class) was in the range of 1000 to 10000 nM. The compound also yielded a Ki in series [1] of over 300 nM. Moreover, the inhibition at 10 µM at CYP3A4 is over 50%.
As to `O=C1N(Cc2ncccc2C(F)(F)F)c2ccccc2C12OCOc1cc3c(cc12)OCCO3` (centres unmarked) [Example 2.54, 1′-{[3-(trifluoromethyl)pyridin-2-yl]methyl}-7,8-dihyrdospiro[1,4-dioxino[2,3-g][1,3]benzodioxine-4,3′-indol]-2′(1′H)-one], the Ki in series [1] was over 300 nM. Besides, the inhibition at 10 µM at CYP3A4 is under 50%.
In the case of `O=C1N(CC2CCCCO2)c2ccccc2C12COc1cc3c(cc12)CCO3` (centres unmarked) [Example 4, 1′-(tetrahydro-2H-pyran-2-ylmethyl)-5,6-dihydrospiro[benzo[1,2-b:5,4-b′]difuran-3,3′-indol]-2′(1′H)-one], the IC50 in the series with sodium channel (activity level class) is 1 to 100 nM. This compound also returned a Ki in series [1] of over 300 nM. The inhibition at 10 µM at CYP3A4 is under 50%.
For the compound `O=C1N(C[C@H]2CCCO2)c2ccccc2C12COc1cc3c(cc12)CCO3` (stereo partly drawn) [Example 4.3, 1′-[(2R)-tetrahydrofuran-2-ylmethyl]-5,6-dihydrospiro[benzo[1,2-b:5,4-b′]difuran-3,3′-indol]-2′(1′H)-one], the 50% inhibitory concentration (IC50) in the series with sodium channel (activity level class) was in the range of 1 to 100 nM. The Ki in series [1] was over 300 nM. The inhibition at 10 µM at CYP3A4 was under 50%.
As to `O=C1N(CC2CCOCC2)c2ccccc2C12COc1cc3c(cc12)CCO3` (centres unmarked) [Example 4.6, 1′-(tetrahydro-2H-pyran-4-ylmethyl)-5,6-dihydrospiro[benzo[1,2-b:5,4-b′]difuran-3,3′-indol]-2′(1′H)-one], the IC50 in the series with sodium channel (activity level class) lay within 100 to 1000 nM. Further, the Ki in series [1] was over 300 nM. Further, the inhibition at 10 µM at CYP3A4 is under 50%.
With `O=C1N(CC2COCCO2)c2ccccc2C12COc1cc3c(cc12)CCO3` (centres unmarked) [Example 4.8, 1′-(1,4-dioxan-2-ylmethyl)-5,6-dihydrospiro[benzo[1,2-b:5,4-b′]difuran-3,3′-indol]-2′(1′H)-one], the IC50 in the series with sodium channel (activity level class) is 1 to 100 nM. In series [1], the Ki is over 300 nM. Moreover, the inhibition at 10 µM on CYP3A4 is under 50%.
Regarding `O=C1N(CC2CCCOC2)c2ccccc2C12COc1cc3c(cc12)CCO3` (centres unmarked) [Example 4.10, 1′-(tetrahydro-2H-pyran-3-ylmethyl)-5,6-dihydrospiro[benzo[1,2-b:5,4-b′]difuran-3,3′-indol]-2′(1′H)-one], the IC50 with sodium channel (activity level class) lay in the range of 1 to 100 nM. This compound displayed a Ki in series [1] of over 300 nM. Further, the inhibition at 10 µM at CYP3A4 is under 50%.
Regarding `O=C1N(CC2CCOC2)c2ccccc2C12COc1cc3c(cc12)CCO3` (centres unmarked) [Example 4.16, 1′-(tetrahydrofuran-3-ylmethyl)-5,6-dihydrospiro[benzo[1,2-b:5,4-b′]difuran-3,3′-indol]-2′(1′H)-one], the IC50 with sodium channel (activity level class) was 100 to 1000 nM. The Ki in series [1] is over 300 nM. In addition, the inhibition at 10 µM on CYP3A4 is under 50%.
In the same order, the values of `O=C1N(CC2CCO2)c2ccccc2C12COc1cc3c(cc12)CCO3` (centres unmarked) [Example 4.20, 1′-(oxetan-2-ylmethyl)-5,6-dihydrospiro[benzo[1,2-b:5,4-b′]difuran-3,3′-indol]-2′(1′H)-one] are 100 to 1000 nM, over 300 nM and under 50%.
`COc1ccc2c(c1)OCC21C(=O)N(C[C@H]2CCCO2)c2ccccc21` (stereo partly drawn) [Example 4.68, 6-methoxy-1′-[(2R)-tetrahydrofuran-2-ylmethyl]spiro[1-benzofuran-3,3′-indol]-2′(1′H)-one]: in the series with sodium channel (activity level class), the IC50 is 100 to 1000 nM. In addition, the Ki in series [1] is over 300 nM. Besides, the inhibition at 10 µM on CYP3A4 is under 50%.
For `O=C1N(Cc2ccc(C(F)(F)F)o2)c2c(Cl)cccc2C12COc1cc3c(cc12)CCO3` (centres unmarked) [Example 5.1, 7′-chloro-1′-((5-(trifluoromethyl)furan-2-yl)methyl)-5,6-dihydro-2H-spiro[benzofuro[6,5-b]furan-3,3′-indolin]-2′-one], the half-maximal inhibitory concentration (IC50) in the series with sodium channel (activity level class) is 100 to 1000 nM. In series [1], the Ki is under 300 nM. For the same compound, the inhibition at 10 µM on CYP3A4 was over 50%.
`CCCCCN1C(=O)[C@]2(COc3cc4c(cc32)OCCO4)c2ccccc21` [Example 7.4, (R)-1′-pentyl-2,3-dihydrospiro[furo[2,3-g][1,4]benzodioxine-8,3′-indol]-2′(1′H)-one] came in with a Ki in series [1] of over 300 nM. Moreover, the inhibition at 10 µM on CYP3A4 is over 50%.
In turn, `COCCCCN1C(=O)C2(COc3cc4c(cc32)OCCO4)c2ccccc21` (centres unmarked) [Example 7.8] displayed a Ki in series [1] of under 300 nM. The inhibition at 10 µM on CYP3A4 was under 50%.
For `O=C1N(Cc2ncccc2C(F)(F)F)c2ccccc2[C@@]12COc1cc3c(cc12)OCCO3` [Example 7.15], the IC50 in the series on sodium channel (activity level class) is 100 to 1000 nM. Also, in series [1], the Ki is over 300 nM. The inhibition at 10 µM at CYP3A4 was under 50%.
In the same order, the values of `CN1C(=O)COc2cc3c(cc21)OCC31C(=O)N(C[C@H]2CCCO2)c2ccccc21` (stereo partly drawn) [Example 9.23, 4-methyl-1′-(((R)-tetrahydrofuran-2-yl)methyl)-4,7-dihydrospiro[benzofuro[5,6-b][1,4]oxazine-8,3′-indoline]-2′,3(2H)-dione] are 1 to 100 nM, over 300 nM and under 50%.
In the case of `O=C1N(Cc2cccnc2)c2ccccc2C12COc1cc3c(cc12)OCCO3` (centres unmarked) [Example 10.1, 1′-(pyridin-3-ylmethyl)-2,3-dihydrospiro[furo[2,3-g][1,4]benzodioxine-8,3′-indol]-2′(1′H)-one], in series [1], the Ki was over 300 nM.
As for `O=C1N(C[C@H]2CCCO2)c2ccccc2[C@]12COc1cc3c(cc12)CCO3` [Example 11.66, (3S)-1′-[(2R)-tetrahydrofuran-2-ylmethyl]-5,6-dihydrospiro[benzo[1,2-b:5,4-b′]difuran-3,3′-indol]-2′(1′H)-one], the IC50 in the series with sodium channel lay within 1 to 100 nM. Further, the Ki in series [1] is over 300 nM.
On to `CN1C(=O)C2(COc3cc4c(cc32)OCCO4)c2c(Oc3ccccc3)cccc21` (centres unmarked) [Example 16.80, 1′-methyl-4-phenoxy-2,3-dihydrospiro[furo[2,3-g][1,4]benzodioxine-8,3′-indol]-2′(1′H)-one], for which the Ki in series [1] was under 300 nM. For the same compound, the inhibition at 10 µM at CYP3A4 was over 50%.
In the case of `N#Cc1cc2c(cc1O)OCC21C(=O)N(Cc2ccccc2C(F)(F)F)c2ccccc21` (centres unmarked) [Example 45.1, 6-hydroxy-2′-oxo-1′-[2-(trifluoromethyl)benzyl]-1′,2′-dihydrospiro[1-benzofuran-3,3′-indole]-5-carbonitrile], the melting point was 122 to 124 °C. Also, in the series with sodium channel, the IC50 fell in the range of 1000 to 10000 nM. On CYP3A4, the inhibition at 10 µM was under 50%.
`O=C1N(Cc2ccccc2C(F)(F)F)c2ccccc2C12COc1cc3[nH]ncc3cc12` (centres unmarked) [Example 46, 1′-[2-(trifluoromethyl)benzyl]-1H-spiro[furo[3,2-f]indazole-5,3′-indol]-2′(1′H)-one] registered a melting point of 124 to 126 °C. The IC50 with sodium channel was 1000 to 10000 nM. The inhibition at 10 µM at CYP3A4 was over 50%.
`O=C1N(Cc2ccccn2)c2ccccc2C12COc1cc3[nH]ncc3cc12` (centres unmarked) [Example 46.1, 1′-(pyridin-2-ylmethyl)-1H-spiro[furo[3,2-f]indazole-5,3′-indol]-2′(1′H)-one] gave a melting point of 117 to 119 °C. In addition, the IC50 with sodium channel is 100 to 1000 nM. In addition, the inhibition at 10 µM on CYP3A4 was under 50%.
In turn, `O=C1N(Cc2ncccc2C(F)(F)F)c2ccccc2C12COc1cc3[nH]ncc3cc12` (centres unmarked) [Example 46.2, 1′-((3-(trifluoromethyl)pyridin-2-yl)methyl)-1,6-dihydrospiro[furo[3,2-f]indazole-5,3′-indolin]-2′-one] showed a melting point of 152 to 154 °C. Besides, the concentration for half-maximal inhibition (IC50) in the series with sodium channel was in the range of 100 to 1000 nM. The inhibition at 10 µM at CYP3A4 is over 50%.

A word on the IC50: it is the concentration that gives 50% inhibition. What is called inhibition is the share of the control response that was lost under treatment. As usually defined, the melting point is the temperature of the solid-liquid transition.
